The source of these data is ChEMBL document CHEMBL4387741, “Optimization of novel reversible Bruton's tyrosine kinase inhibitors identified using Tethering-fragment-based screens” (Bioorg Med Chem, 2019).

Molecules are shown by their SMILES.

The target in series [1] is Activin receptor type-1 (Homo sapiens) (UniProt Q04771). Put plainly: Inhibition of wild-type human ACVR1 (C188 to C509 residues) expressed in bacterial expression system at 1 uM by Kinomescan method relative to control.
Series [2] has as its target 5'-AMP-activated protein kinase catalytic subunit alpha-2 (Homo sapiens) (UniProt P54646). Put plainly: Inhibition of wild-type human partial length AMPK alpha2 (M1 to E306 residues) expressed in bacterial expression system at 1 uM by Kinomescan method relative to control.
The target in series [3] is Calcium/calmodulin-dependent protein kinase type II subunit delta (Homo sapiens) (UniProt Q13557). Kind of series: Inhibition of wild-type human partial length CAMK2D (M1 to E329 residues) expressed in bacterial expression system at 1 uM by Kinomescan method relative to control.
Series [4] has as its target Calcium/calmodulin-dependent protein kinase kinase 2 (Homo sapiens) (UniProt Q96RR4). Kind of series: Inhibition of wild-type human partial length CAMKK2 (D65 to V471 residues) expressed in bacterial expression system at 1 uM by Kinomescan method relative to control.
Series [5] deals with Casein kinase I isoform alpha-like (Homo sapiens) (UniProt Q8N752). Put plainly: Inhibition of wild-type human full length CSNK1A1L (M1 to N337 residues) expressed in bacterial expression system at 1 uM by Kinomescan method relative to control.
Series [6] concerns the target Tyrosine-protein kinase Fyn (Homo sapiens) (UniProt P06241). Put plainly: Inhibition of wild-type human partial length FYN (T243 to L534 residues) expressed in bacterial expression system at 1 uM by Kinomescan method relative to control.
The target of series [7] is Leukocyte tyrosine kinase receptor (Homo sapiens) (UniProt P29376). Kind of series: Inhibition of wild-type human partial length LTK (P422 to S744 residues) expressed in bacterial expression system at 1 uM by Kinomescan method relative to control.
Sequence of Leukocyte tyrosine kinase receptor (Homo sapiens) (P29376 whole entry, the tested form may be a part): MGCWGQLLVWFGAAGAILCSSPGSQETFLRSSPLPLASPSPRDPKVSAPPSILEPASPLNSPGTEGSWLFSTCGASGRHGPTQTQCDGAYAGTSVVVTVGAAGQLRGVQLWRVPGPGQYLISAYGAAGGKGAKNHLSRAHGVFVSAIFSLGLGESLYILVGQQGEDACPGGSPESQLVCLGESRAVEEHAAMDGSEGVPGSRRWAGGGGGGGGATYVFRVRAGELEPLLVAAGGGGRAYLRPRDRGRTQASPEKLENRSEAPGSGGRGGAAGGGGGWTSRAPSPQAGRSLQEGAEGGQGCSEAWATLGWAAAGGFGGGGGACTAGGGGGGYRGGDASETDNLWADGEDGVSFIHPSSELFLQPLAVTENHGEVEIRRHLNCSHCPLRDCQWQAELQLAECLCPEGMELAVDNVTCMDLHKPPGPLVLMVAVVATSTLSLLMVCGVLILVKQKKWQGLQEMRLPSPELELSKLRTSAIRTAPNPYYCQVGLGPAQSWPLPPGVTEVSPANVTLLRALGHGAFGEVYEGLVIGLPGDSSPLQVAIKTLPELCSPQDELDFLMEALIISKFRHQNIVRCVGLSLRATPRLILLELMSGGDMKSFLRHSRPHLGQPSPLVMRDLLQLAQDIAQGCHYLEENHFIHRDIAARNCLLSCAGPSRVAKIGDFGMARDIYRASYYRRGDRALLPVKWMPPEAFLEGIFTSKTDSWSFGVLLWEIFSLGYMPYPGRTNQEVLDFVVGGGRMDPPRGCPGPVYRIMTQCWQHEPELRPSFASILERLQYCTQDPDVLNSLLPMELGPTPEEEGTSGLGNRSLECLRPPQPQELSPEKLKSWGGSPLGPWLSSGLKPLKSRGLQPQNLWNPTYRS
Series [8] has as its target Serine/threonine-protein kinase MAK (Homo sapiens) (UniProt P20794). Kind of series: Inhibition of wild-type human partial length MAK (M1 to P314 residues) expressed in bacterial expression system at 1 uM by Kinomescan method relative to control.
Series [9] addresses Mitogen-activated protein kinase kinase kinase kinase 5 (Homo sapiens) (UniProt Q9Y4K4). Put plainly: Inhibition of wild-type human partial length MAP4K5 (M1 to P297 residues) expressed in bacterial expression system at 1 uM by Kinomescan method relative to control.
For series [10], the target named is Serine/threonine-protein kinase Nek10 (Homo sapiens) (UniProt Q6ZWH5). Put plainly: Inhibition of wild-type human partial length NEK10 (L488 to R809 residues) expressed in mammalian expression system at 1 uM by Kinomescan method relative to control.
Series [11] concerns the target Serine/threonine-protein kinase PAK 4 (Homo sapiens) (UniProt O96013). Kind of series: Inhibition of wild-type human partial length PAK4 (Q144 to R438 residues) expressed in bacterial expression system at 1 uM by Kinomescan method relative to control.
The target of series [12] is Serine/threonine-protein kinase WNK3 (Homo sapiens) (UniProt Q9BYP7). Kind of series: Inhibition of wild-type human partial length WNK3 (M1 to D434 residues) expressed in mammalian expression system at 1 uM by Kinomescan method relative to control.
Sequence of Serine/threonine-protein kinase WNK3 (Homo sapiens) (Q9BYP7 whole entry, the tested form may be a part): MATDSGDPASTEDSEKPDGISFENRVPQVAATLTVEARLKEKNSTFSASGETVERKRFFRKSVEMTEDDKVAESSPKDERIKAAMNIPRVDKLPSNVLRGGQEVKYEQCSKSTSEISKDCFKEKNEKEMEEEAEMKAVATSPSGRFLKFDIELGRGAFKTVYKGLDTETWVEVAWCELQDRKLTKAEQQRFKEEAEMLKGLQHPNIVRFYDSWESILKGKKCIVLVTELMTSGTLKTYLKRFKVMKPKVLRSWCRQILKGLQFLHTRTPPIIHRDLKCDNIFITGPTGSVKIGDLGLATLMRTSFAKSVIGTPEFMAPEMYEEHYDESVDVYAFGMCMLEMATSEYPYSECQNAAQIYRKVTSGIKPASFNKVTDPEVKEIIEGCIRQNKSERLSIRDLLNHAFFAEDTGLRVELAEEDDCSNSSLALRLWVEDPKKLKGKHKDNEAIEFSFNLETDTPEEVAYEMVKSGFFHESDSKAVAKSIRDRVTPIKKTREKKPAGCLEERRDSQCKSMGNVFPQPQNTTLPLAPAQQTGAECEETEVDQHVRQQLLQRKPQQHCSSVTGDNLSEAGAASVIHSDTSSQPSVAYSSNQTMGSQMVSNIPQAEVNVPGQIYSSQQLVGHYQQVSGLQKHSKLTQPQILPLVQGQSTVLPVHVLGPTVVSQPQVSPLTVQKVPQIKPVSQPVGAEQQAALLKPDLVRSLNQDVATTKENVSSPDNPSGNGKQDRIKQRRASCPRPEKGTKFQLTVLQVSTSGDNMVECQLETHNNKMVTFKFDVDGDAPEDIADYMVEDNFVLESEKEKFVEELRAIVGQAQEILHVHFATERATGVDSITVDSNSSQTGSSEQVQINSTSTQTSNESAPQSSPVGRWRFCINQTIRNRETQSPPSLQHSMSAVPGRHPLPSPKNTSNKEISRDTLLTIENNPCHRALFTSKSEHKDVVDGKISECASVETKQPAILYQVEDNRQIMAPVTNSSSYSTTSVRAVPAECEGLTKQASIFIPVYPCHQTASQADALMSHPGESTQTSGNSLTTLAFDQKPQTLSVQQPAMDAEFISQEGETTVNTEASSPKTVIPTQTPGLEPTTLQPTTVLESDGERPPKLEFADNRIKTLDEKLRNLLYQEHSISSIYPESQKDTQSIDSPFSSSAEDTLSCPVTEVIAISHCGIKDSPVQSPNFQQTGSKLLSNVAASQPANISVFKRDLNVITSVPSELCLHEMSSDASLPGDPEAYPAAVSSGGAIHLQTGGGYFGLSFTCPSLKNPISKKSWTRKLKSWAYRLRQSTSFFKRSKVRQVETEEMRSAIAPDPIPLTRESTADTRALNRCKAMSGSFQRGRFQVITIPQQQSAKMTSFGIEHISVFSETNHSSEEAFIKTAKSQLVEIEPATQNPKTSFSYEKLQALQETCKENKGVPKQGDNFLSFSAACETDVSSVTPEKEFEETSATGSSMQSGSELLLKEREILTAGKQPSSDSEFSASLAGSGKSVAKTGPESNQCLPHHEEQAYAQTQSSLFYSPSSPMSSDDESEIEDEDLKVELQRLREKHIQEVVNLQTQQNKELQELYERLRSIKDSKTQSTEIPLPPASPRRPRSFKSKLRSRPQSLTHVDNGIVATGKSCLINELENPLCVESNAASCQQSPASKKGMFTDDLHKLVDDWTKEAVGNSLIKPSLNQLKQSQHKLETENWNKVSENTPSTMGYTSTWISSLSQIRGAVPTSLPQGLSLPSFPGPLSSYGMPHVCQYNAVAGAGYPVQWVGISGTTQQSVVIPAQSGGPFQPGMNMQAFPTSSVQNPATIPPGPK
Series [13] can be described thus: Apparent permeability from apical to basolateral side in human Caco2 cells at 5 uM after 120 mins by LC-MS/MS analysis. Type of series: ADME, cell-based. The note with it: Caco-2.
Series [14] deals with Aurora kinase B (Homo sapiens) (UniProt Q96GD4). Put plainly: Inhibition of wild-type human partial length AURKB (D25 to A303 residues) expressed in mammalian expression system at 10 uM by Kinomescan method relative to control.
For series [15], the target named is Aurora kinase C (Homo sapiens) (UniProt Q9UQB9). Kind of series: Inhibition of wild-type human full length AURKC (M1 to S275 residues) expressed in bacterial expression system at 10 uM by Kinomescan method relative to control.
The target in series [16] is Bone morphogenetic protein receptor type-1A (Homo sapiens) (UniProt P36894). Put plainly: Inhibition of wild-type human partial length BMPR1A (Q214 to I532 residues) expressed in bacterial expression system at 10 uM by Kinomescan method relative to control.
For series [17], the target named is Casein kinase I isoform delta (Homo sapiens) (UniProt P48730). Put plainly: Inhibition of wild-type human full length CSNK1D (M1 to K409 residues) expressed in bacterial expression system at 10 uM by Kinomescan method relative to control.
In series [18] the target is Ephrin type-A receptor 7 (Homo sapiens) (UniProt Q15375). Kind of series: Inhibition of wild-type human partial length EPHA7 (Y608 to S912 residues) expressed in bacterial expression system at 10 uM by Kinomescan method relative to control.
Sequence of Ephrin type-A receptor 7 (Homo sapiens) (Q15375 28-998 limits assumed): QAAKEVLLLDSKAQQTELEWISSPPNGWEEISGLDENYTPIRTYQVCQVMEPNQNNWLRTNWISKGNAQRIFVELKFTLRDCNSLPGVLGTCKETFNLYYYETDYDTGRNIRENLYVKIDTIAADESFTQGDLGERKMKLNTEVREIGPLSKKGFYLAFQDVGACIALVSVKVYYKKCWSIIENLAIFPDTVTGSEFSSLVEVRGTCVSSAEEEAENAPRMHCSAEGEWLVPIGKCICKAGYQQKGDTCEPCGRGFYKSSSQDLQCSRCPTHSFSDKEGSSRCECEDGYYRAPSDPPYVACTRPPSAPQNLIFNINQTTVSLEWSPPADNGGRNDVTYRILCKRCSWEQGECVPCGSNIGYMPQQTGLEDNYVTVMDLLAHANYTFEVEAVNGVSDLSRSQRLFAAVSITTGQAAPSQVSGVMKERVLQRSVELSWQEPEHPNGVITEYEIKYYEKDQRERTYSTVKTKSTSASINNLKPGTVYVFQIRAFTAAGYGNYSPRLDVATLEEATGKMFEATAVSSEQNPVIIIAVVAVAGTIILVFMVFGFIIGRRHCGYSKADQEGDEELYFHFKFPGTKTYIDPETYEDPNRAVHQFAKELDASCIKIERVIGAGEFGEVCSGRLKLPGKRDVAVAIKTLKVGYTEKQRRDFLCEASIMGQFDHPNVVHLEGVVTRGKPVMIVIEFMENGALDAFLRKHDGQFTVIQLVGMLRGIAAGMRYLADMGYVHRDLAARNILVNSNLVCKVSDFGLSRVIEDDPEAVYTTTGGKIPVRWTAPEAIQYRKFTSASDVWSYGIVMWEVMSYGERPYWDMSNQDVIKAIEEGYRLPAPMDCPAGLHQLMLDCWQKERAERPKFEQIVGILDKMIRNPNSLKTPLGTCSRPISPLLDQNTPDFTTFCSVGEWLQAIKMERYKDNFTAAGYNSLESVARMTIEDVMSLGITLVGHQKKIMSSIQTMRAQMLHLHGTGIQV
Series [19] relates to Mast/stem cell growth factor receptor Kit (Homo sapiens), P10721 [A829P]. Kind of series: Inhibition of human partial length KIT A829P mutant (I571 to D952 residues) expressed in mammalian expression system at 10 uM by Kinomescan method relative to control.
For series [20], the target named is Serine/threonine-protein kinase STK11 (Homo sapiens) (UniProt Q15831). Kind of series: Inhibition of wild-type human full length LKB1 (M1 to Q433 residues) expressed in bacterial expression system at 10 uM by Kinomescan method relative to control.
Sequence of Serine/threonine-protein kinase STK11 (Homo sapiens) (Q15831 whole entry, the tested form may be a part): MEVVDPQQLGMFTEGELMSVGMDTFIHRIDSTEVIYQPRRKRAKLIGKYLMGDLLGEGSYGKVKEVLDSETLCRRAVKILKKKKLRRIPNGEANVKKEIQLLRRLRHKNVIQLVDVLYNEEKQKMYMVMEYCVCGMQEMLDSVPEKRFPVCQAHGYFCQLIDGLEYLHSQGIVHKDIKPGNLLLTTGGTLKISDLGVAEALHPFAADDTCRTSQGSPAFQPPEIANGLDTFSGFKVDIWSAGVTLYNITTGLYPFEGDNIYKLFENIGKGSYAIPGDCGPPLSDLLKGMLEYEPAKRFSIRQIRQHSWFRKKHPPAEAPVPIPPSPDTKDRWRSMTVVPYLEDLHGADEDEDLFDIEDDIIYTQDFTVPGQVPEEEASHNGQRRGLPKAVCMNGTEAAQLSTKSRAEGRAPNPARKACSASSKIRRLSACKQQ
Series [21] deals with Tyrosine-protein kinase Lyn (Homo sapiens) (UniProt P07948). Kind of series: Inhibition of wild-type human partial length LYN (C219 to Q511 residues) expressed in bacterial expression system at 10 uM by Kinomescan method relative to control.
The target of series [22] is Serine/threonine-protein kinase 26 (Homo sapiens) (UniProt Q9P289). Kind of series: Inhibition of wild-type human full length MST4 (M1 to P416 residues) expressed in mammalian expression system at 10 uM by Kinomescan method relative to control.
For series [23], the target named is Serine/threonine-protein kinase 38-like (Homo sapiens) (UniProt Q9Y2H1). Kind of series: Inhibition of wild-type human partial length NDR2 (N34 to E447 residues) expressed in bacterial expression system at 10 uM by Kinomescan method relative to control.
The test system of series [24] is Proto-oncogene tyrosine-protein kinase receptor Ret (Homo sapiens), P07949 [V804M]. Kind of series: Inhibition of human partial length RET V804M mutant (E713 to D1014 residues) expressed in bacterial expression system at 10 uM by Kinomescan method relative to control.
Series [25] deals with Ribosomal protein S6 kinase alpha-4 (Homo sapiens) (UniProt O75676). Kind of series: Inhibition of wild-type human partial length C-terminal RPS6KA4 kinase domain 2 (M375 to T705 residues) expressed in mammalian expression system at 10 uM by Kinomescan method relative to control.
Series [26] deals with Serine/threonine-protein kinase Sgk1 (Homo sapiens) (UniProt O00141). Put plainly: Inhibition of wild-type human partial length SGK (I60 to L431 residues) expressed in mammalian expression system at 10 uM by Kinomescan method relative to control.
Sequence of Serine/threonine-protein kinase Sgk1 (Homo sapiens) (O00141 whole entry, the tested form may be a part): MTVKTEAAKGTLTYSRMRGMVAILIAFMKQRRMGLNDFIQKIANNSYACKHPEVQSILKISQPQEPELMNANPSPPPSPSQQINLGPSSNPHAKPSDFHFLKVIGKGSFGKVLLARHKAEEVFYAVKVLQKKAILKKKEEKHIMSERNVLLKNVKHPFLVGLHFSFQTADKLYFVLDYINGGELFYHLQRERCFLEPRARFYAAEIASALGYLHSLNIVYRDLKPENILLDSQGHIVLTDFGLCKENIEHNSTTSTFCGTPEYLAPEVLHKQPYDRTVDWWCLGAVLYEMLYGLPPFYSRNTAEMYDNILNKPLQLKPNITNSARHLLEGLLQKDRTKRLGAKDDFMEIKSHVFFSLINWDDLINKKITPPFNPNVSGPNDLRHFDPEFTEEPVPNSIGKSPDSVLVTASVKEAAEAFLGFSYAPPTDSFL
The target in series [27] is High affinity nerve growth factor receptor (Homo sapiens) (UniProt P04629). Kind of series: Inhibition of wild-type human partial length TRKA (G475 to G790 residues) expressed in mammalian expression system at 10 uM by Kinomescan method relative to control.

Sequence of 5'-AMP-activated protein kinase catalytic subunit alpha-2 (Homo sapiens) (P54646 whole entry, looked up, the tested form may be a part): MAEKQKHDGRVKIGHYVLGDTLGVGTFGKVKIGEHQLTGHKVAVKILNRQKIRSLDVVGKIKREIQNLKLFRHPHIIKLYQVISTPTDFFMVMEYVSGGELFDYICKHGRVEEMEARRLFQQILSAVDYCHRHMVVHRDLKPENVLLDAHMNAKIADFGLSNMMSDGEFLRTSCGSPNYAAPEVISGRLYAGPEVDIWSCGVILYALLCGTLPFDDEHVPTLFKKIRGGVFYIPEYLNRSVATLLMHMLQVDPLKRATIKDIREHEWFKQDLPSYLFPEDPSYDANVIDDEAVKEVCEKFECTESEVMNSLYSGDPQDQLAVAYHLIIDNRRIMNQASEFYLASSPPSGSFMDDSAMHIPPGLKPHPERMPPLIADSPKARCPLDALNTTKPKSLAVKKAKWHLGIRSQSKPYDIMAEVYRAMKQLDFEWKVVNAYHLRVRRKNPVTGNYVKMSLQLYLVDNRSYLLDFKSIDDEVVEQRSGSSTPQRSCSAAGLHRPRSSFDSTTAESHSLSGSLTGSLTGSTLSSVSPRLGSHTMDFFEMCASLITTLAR

Regarding `O=C(Nc1cccc([C@@H]2CN(c3ncnc4[nH]ccc34)CCN2CCO)c1)Nc1c(F)cccc1N1CCCC1`, the inhibition stood at 100% in series [1]; 56% in series [2]; 100% in [3]; 94% in series [4]; 100% in series [5]; 52% in series [6]. For the same molecule, the inhibition in series [7] is 100%; in [8] it was 94%; in series [9], 91%; in [10] it was 26%; in [11] it was 75%; in [12], 61%. In series [13], the apical-to-basolateral permeability (Papp A→B) at 2 h, 5 µM was 4 ×10⁻⁶ cm/s.

`O=C(Nc1cccc([C@H]2CCCN(c3ncnc4[nH]ccc34)C2)c1)Nc1ccccc1N1CCCC1`: the inhibition is 1.1% in [14]; 4.3% in [15]; 82% in series [16]; 100% in [17]; 72% in [18]; 15% in [19]. Further, the inhibition in series [20] was found to be 25%; in series [21], 66%; in series [22], 62%; in series [23], 100%; in series [24], 0.65%; in series [25], 44%. Further, the inhibition in [26] and in [27] was 26% each time.
